Converted amounts (≈) assume the structure as drawn. “And” between values parts separate entries of the source, which are not always exact repeats. Equal entries are not always repeated. Where two headings read alike, the source gives them in different places.
Experiments:
Type in all cases: cell-based
[1] = test system: Enterococcus faecalis vanA (strain E0155); experiment: MIC (microdilution) against E. faecalis; conditions: for MIC: Enterococcus faecalis, read-out: MIC E. faecalis; for MIC E. faecalis: Table ST1
Experimental: (§1) Staphylococcus aureus str. Newman, Enterococcus faecalis vanA (strain E0155), Enterococcus faecium vanA (strain E1654), Escherichia coli ATCC 25922, Escherichia coli D21f2 with a truncated LPS barrier, Escherichia coli JW5503 (ΔtolC) ([49]), Pseudomonas aeruginosa ATCC 27853, and Pasteurella haemolytica ATCC 29701 were grown in Mueller-Hinton Broth (MHB) (Oxoid, Basingstoke, UK) and incubated at 37°C.
(§2) The minimal inhibitory concentration was determined using the microdilution method following the guidelines of the European Committee on Antimicrobial Susceptibility Testing ([50]). Briefly, a series of twofold dilutions in MHB of each compound were made in a 96-well plate, with final concentrations ranging from 50 to 0.39 µg/mL in 100 µL final volume per well. A hundred microliters of 1:100 dilution of an overnight culture of the correspondent bacteria in MHB was added to each well. Plates were incubated for 18 hours at 37°C. MIC was recorded as the lowest concentration where no growth was detected as measured by optical density at 600 nm (OD600) using Spectramax M5 (Molecular Devices LLC, San Jose, CA, USA). […] Wells containing bacteria with or without 1% DMSO and medium alone were included as controls in every plate.

[2] = test system: Pseudomonas aeruginosa ATCC 27853; experiment: MIC (microdilution) against P. aeruginosa; conditions: for MIC: Pseudomonas aeruginosa; for MIC P. aeruginosa: Table ST1
Experimental: as §1, §2

[3] = test system: Pasteurella haemolytica ATCC 29701; experiment: MIC (microdilution) against P. haemolytica; conditions: for MIC: Mannheimia haemolytica
Experimental: as §1, §2

[4] = test system: Enterococcus faecium vanA (strain E1654); experiment: MIC (microdilution) against E. faecium; conditions: for MIC: Enterococcus faecium, read-out: MIC E. faecium; for MIC E. faecium: Table ST1
Experimental: as §1, §2

[5] = test system: Staphylococcus aureus str. Newman; experiment: Minimal inhibitory concentration (microdilution) against S. aureus; conditions: for MIC S. aureus: Table ST3
Experimental: as §1, §2

[6] = test system: S. aureus str. Newman; experiment: Membrane permeability using SYTOX-Green, flow cytometry; conditions: for % FITC stained bacteria 0.5 xMIC: 0.5× MIC; for % FITC stained bacteria 2 xMIC: 2× MIC; for Membrane damage: if considered to cause membrane damage to S. aureus
Experimental: S. aureus str. Newman was grown to exponential phase (OD600 = 0.4) in MHB media. […] Nisin (Sigma-Aldrich) and novobiocin (Sigma-Aldrich) were used as positive and negative controls for membrane permeabilization, and stained and unstained untreated controls were also included in each assay. After exposure, samples were centrifuged at 4,000 r.p.m. for 5 min and resuspended in PBS. Bacteria were dyed by adding the fluorescent nuclear stain SYTOX Green (Molecular Probes, Invitrogen) to a final concentration of 0.5 µM and incubating for 5 min in the dark. Samples were centrifuged again and resuspended with PBS to remove unbound stain. Three hundred microliters of each sample was transferred to a clean well in a 96-well clear-bottom plate (Corning Incorporated). Fluorescence was measured in CytoFLEX flow cytometer (Beckman Coulter, Brea, CA, USA) using the green (FITC) channel with the excitation wavelength at 488 nm. Overlay histograms were created with CytExpert Software (Beckman Coulter, Brea, CA, USA).

[7] = in vitro; conditions: human
Experimental: (§3) HEK293 cells and the human hepatocellular carcinoma cells (HepG2) were routinely cultured in 75-cm^2 culture flasks (Corning Incorporated) on high-glucose Dulbecco’s modified Eagle medium (DMEM) containing glutaMax and phenol red (Gibco) supplemented with 1% penicillin/streptomycin (Gibco) and 10% fetal bovine serum (FBS) (Gibco). Cells were maintained at 37°C and 5% CO2.
(§4) Cytotoxicity assays with HEK293 and HepG2 cells were performed in 96-well plates seeded with 5 × 10^4 cells/well and incubated for 24 hours to reach 80%–90% confluency. Exterior wells were filled with only medium to prevent evaporation. Culture medium was removed from the cells, and 100 µL of exposure medium [high-glucose DMEM without phenol red (Gibco)] was added to avoid a potential interaction between FBS components or antibiotics and tested compounds. A twofold dilution series of compounds in exposure medium (range 100–3.2 μg/mL) was made in a separate 96-well plate, and 100 µL of each of these dilutions was added to the assay plates for 24 hours at 37°C in the presence of 5% CO2. Control wells contained cells with DMEM, DMEM + 1% DMSO (vehicle control), or DMEM + 20% DMSO. Wells without cells were also included as negative control. After exposure, the medium was replaced with 100 µL 10% Alamar Blue (Invitrogen) in exposure medium. After 45 min incubation at 37°C and 5% CO2, fluorescence was measured on a Spectramax M5 plate reader at λex = 541 nm, λem = 590 nm. Cell viability compared with the vehicle control was calculated, and inhibition curves for each compound were fitted (non-linear curve fit, four variables, bottom constrained = 0) in Prism 9 (GraphPad Software, San Diego, USA).

[8] = test system: HEK293 cells; experiment: in vitro; conditions: for Selectivity Index: LC50/MIC (HEK293 / S. aureus); for LC20: human, 24 h
Experimental: as §3, §4

[9] = test system: Escherichia coli D21f2 with a truncated LPS barrier; experiment: MIC (microdilution) against E. coli D21f2
From the text: We also tested the inhibitory activity of compounds in two different E. coli mutants: (i) E. coli JW5503 that lacks TolC efflux pumps and (ii) E. coli D21f2 that has a defective LPS inner core increasing permeability of the outer membrane. E. coli D21f2 has a slightly higher susceptibility to DPP compounds than E. coli ATCC25922.
as §1, §2

[10] = ATCC27853, Table 1, read-out: MIC P. aeruginosa
[11] = ATCC29701, read-out: MIC P. haemolytica, Table 1
[12] = ATCC29701, read-out: MIC P. haemolytica, Table ST1
[13] = Staphylococcus aureus, NEWMAN, Fig 2
[14] = Staphylococcus aureus, NEWMAN, Fig 2, value in parentheses
[15] = Table ST3, value in parentheses
[16] = ATCC27853, read-out: MIC P. aeruginosa

SMILES | MIC [1] [µg/mL] | MIC E. faecalis [1] [µg/mL] | MIC [2, 10] [µg/mL] | MIC P. aeruginosa [2] [µg/mL] | MIC [3, 11] [µg/mL] | MIC [3, 12] [µg/mL] | MIC [4] [µg/mL] | MIC E. faecium [4] [µg/mL] | MIC [5, 13] [µg/mL] | MIC [5, 14] [µM] | MIC S. aureus [5] [µg/mL] | MIC [5, 15] [µM] | % FITC stained bacteria 0.5 xMIC ([6]; 5 min exposure) [%] | % FITC stained bacteria 1 xMIC ([6]; 1× MIC, 5 min exposure) [%] | % FITC stained bacteria 2 xMIC ([6]; 5 min exposure) [%] | Membrane damage [6] | CC50 at 24 h [7] | Selectivity Index [8] | MIC ([9]; read-out: MIC E coli D21f2) [µg/mL] | MIC ([9]; read-out: MIC E. coli D21f2) [µg/mL] | other results
COc1ccc(-c2[nH]nc(C(F)(F)F)c2-c2ccc(Cl)cc2)c(O)c1 [DPP-6] | 6.25 (≈ 16.9 µM) | 6.25 (≈ 16.9 µM) | > 250 | >250 | 12.5 (≈ 33.9 µM) | 12.5 (≈ 33.9 µM) | 6.25 (≈ 16.9 µM) | 6.25 (≈ 16.9 µM) | 3.12 | 8.43 | 3.12 (≈ 8.46 µM) | 8.43 | 36.93 | 44.48 | 48.91 | YES | 14.3 µg/mL and 38.6 µM | 4.58 | 25 (≈ 67.8 µM) | 25 (≈ 67.8 µM) | LC20 [8]: 6 µg/mL (≈ 16.3 µM)
Oc1ccc(-c2n[nH]c(C(F)(F)F)c2-c2ccc(Cl)cc2)c(O)c1 [DPP-5] | 12.5 (≈ 35.2 µM) | 12.5 (≈ 35.2 µM) | > 250 | >250 |  |  | 12.5 (≈ 35.2 µM) | 12.5 (≈ 35.2 µM) | 3.12 | 8.79 | 3.12 (≈ 8.8 µM) | 8.79 | 13.40 | 13.42 | 41.29 | MILD | 12.9 µg/mL and 36.3 µM | 4.13 | 50 (≈ 141 µM) | 50 (≈ 141 µM) | MIC ([3]; ATCC29701, Table 1, read-out: MIC P. haemolytica): 12.5 µg/mL (≈ 35.2 µM); MIC P. haemolytica ([3]; Table ST1): 12.5 µg/mL (≈ 35.2 µM); Loss of membrane integrity ([6]; 1× MIC, 5 min exposure): did not cause significant loss of membrane integrity; LC20 [8]: 5 µg/mL (≈ 14.1 µM)
COc1ccc(-c2c(C(F)(F)F)n[nH]c2-c2ccc(O)cc2O)cc1 [DPP-12] | 50 (≈ 143 µM) | 50 (≈ 143 µM) |  | >250 | 50 (≈ 143 µM) | 62.5 (≈ 178 µM) | 50 (≈ 143 µM) | 50 (≈ 143 µM) | 12.5 | 35.7 | 12.50 (≈ 35.7 µM) | 35.71 | 9.04 | 24.16 | 29.11 | MILD | 31.7 µg/mL and 90.7 µM | 2.54 | > 50 | > 250 | MIC [2, 16]: > 250 µg/mL
COc1ccc(-c2c(C(F)(F)F)n[nH]c2-c2ccc(OC)cc2O)cc1 [DPP-13] | 25 (≈ 68.6 µM) | 25 (≈ 68.6 µM) |  | >250 | > 250 | > 250 | 25 (≈ 68.6 µM) | 25 (≈ 68.6 µM) | 12.5 | 34.3 | 12.50 (≈ 34.3 µM) | 34.34 | 35.10 | 45.40 | 45.44 | YES | 29.9 µg/mL and 82.1 µM | 2.39 | > 50 | > 250 | MIC [2, 16]: > 250 µg/mL
COc1ccc(-c2[nH]nc(C(F)(F)F)c2-c2ccccc2)c(O)c1 [DPP-2] | 25 (≈ 74.8 µM) | 25 (≈ 74.8 µM) | > 250 | >250 | 50 (≈ 150 µM) | 50 (≈ 150 µM) | 25 (≈ 74.8 µM) | 25 (≈ 74.8 µM) | 12.5 | 37.3 | 12.50 (≈ 37.4 µM) | 37.3 | 49.81 | 54.03 | 63.56 | YES | 7.34 µg/mL and 21.9 µM | 0.60 | 50 (≈ 150 µM) | 50 (≈ 150 µM) | 
CCOc1ccc(-c2[nH]nc(C(F)(F)F)c2-c2ccc(Cl)cc2)c(O)c1 [DPP-7] | 3.12 (≈ 8.15 µM) | 3.12 (≈ 8.15 µM) | > 250 | >250 | 25 (≈ 65.3 µM) | 25 (≈ 65.3 µM) | 3.12 (≈ 8.15 µM) | 3.12 (≈ 8.15 µM) | 3.12 | 8.21 | 3.12 (≈ 8.15 µM) | 8.21 | 42.44 | 50.30 | 54.59 | YES | 10.8 µg/mL and 28.5 µM | 3.47 | 25 (≈ 65.3 µM) | 25 (≈ 65.3 µM) | 
